Read-outs that look alike come from different tables or passages of the source.
How the values were obtained:
[1] = test system: human lung A549 cancer cells; assay: Cytotoxicity towards A549 cells, sulforhodamine B (SRB) assay; format: cell-based
Procedure: (§1) Experimental: Cytotoxicity Towards A2780 and A549 Human Cancer Cells. After plating, human ovarian A2780 cancer cells were treated with Os^II complexes on day 3, and human lung A549 cancer cells on day 2, at concentrations ranging from 2 μM to 50 μM. Solutions of the Os^II complexes were made up in 0.125% DMSO to assist dissolution. Cells were exposed to the complexes for 24 h, washed, supplied with fresh medium, allowed to grow for three doubling times (72 h), and then the protein content measured (proportional to cell survival) using the sulforhodamine B (SRB) assay.
(§2) Cancer Cell Cytotoxicity. After plating, human ovarian A2780 cancer cells were treated with OsII complexes on day 3, and human lung A549 cancer cells on day 2, at concentrations ranging from 0.1 μM to 100 μM. Solutions of the OsII complexes were made up in 0.125% DMSO to assist dissolution. Cells were exposed to the complexes for 24 h, washed, supplied with fresh medium, allowed to grow for three doubling times (72 h), and then the protein content measured (proportional to cell survival) using the sulforhodamine B (SRB) assay.10

[2] = test system: human ovarian A2780 cancer cells; assay: Cytotoxicity towards A2780 cells, sulforhodamine B (SRB) assay; format: cell-based
Procedure: as §1, §2

[3] = Acidity (pKa / pKa*) of coordinated water, 1H NMR pH* titration
Source text: pKa* calculations. […] The chemical shifts of the arene ring protons were plotted against pH*. The pH* titration curves were fitted to the Henderson-Hasselbalch equation, with the assumption that the observed chemical shifts are weighted averages according to the populations of the protonated and deprotonated species.

[4] = Hydrolysis (aquation) kinetics followed by 1H NMR; format: physicochemical
Procedure: Hydrolysis. […] The rate of hydrolysis was determined by fitting plots of concentrations (determined by ^1H NMR peak integrals) versus time to a pseudo first-order equation using ORIGIN version 5.0 (Microcal Software Ltd.).

[5] = Effect of chloride concentration on aqua adduct formation; format: physicochemical; conditions: 1 mM complex in D2O, t = 10 min
Source text: The effects of chloride levels on the distribution of AFAP42 (“prodrug”) and its aqua analogue (“active species”) were investigated. […] Results are summarised in table 6, showing how the hydrolysis of AFAP42 is suppressed in solutions with chloride concentrations similar to those found in blood plasma. At chloride concentrations typical of the cells cytoplasm, complex AFAP42 hydrolyses to some extent and at chloride concentrations typical of the nucleus (where the proposed target, DNA, can be found), the complex is present predominantly as the “active species” the aqua complex.
The effects of chloride concentrations typical of blood plasma (100 mM), cell cytoplasm (22.7 mM) and cell nucleus (4 mM) on the aqueous chemistry of 3 and 6 were investigated. ^1H NMR spectra of 3 or 6 (1 mM) were recorded within 10 min of sample preparation and after incubation at 310 K for 24 h.

9-ethyl adenine (9EtA) = assay: Reaction with nucleobase model 9-ethyl adenine, 1H NMR; format: binding; conditions: for % 9EtA nucleobase adduct: 1 mM complex, 1 mol equivalent 9EtA, D2O; for binding to 9EtA (nucleobase adduct formation): time not given; for +1 eq. 9-EtA (% adduct formation): pH* close to 7.4, 298 K
Procedure: (§3) Since DNA is believed to be the main target for metal anticancer drugs, nucleobase binding reactions of compounds 3-6, with nucleobase models, 9-ethyl guanine (9EtG) and 9-ethyl adenine (9EtA), were investigated.
(§4) Solutions of 3-6 (1 mM) (present as an equilibrium between 3-6 and their respective aqua adducts as the major species) with 1 mol equivalent of 9EtG (Table 14) or 9EtA (Table 15) in D2O were prepared and ^1H NMR spectra were taken at different time intervals.
(§5) Interactions with Nucleobases. The reaction of compounds 8-12 with nucleobases typically involved addition of a solution containing 1 mol equiv of nucleobase in D2O, to an equilibrium solution of compounds 8-12 in D2O (>90% aqua). The pH* value of the sample was adjusted if necessary so as to remain close to 7.4 (physiological). ^1H NMR spectra of these solutions were recorded at 298 K after various time intervals.

9-ethyl guanine (9EtG) = assay: Reaction with nucleobase model 9-ethyl guanine, 1H NMR; format: binding; conditions: for % 9EtG nucleobase adduct: 1 mM complex, 1 mol equivalent 9EtG, D2O; for binding to 9EtG (nucleobase adduct formation): time not given; for +1 eq. 9-EtG (% adduct formation): pH* close to 7.4, 298 K
Procedure: as §3, §4, §5

[6] = Effect of chloride concentration on aqua adduct formation; format: physicochemical; conditions: 1 mM complex in D2O, t = 26 h
[7] = Table 7, 24 h exposure, 72 h growth, 2-50 μM, read-out: IC50/μM A549
[8] = Table 7, 24 h exposure, 72 h growth, 2-50 μM, read-out: IC50/μM A2780
[9] = Table 19, read-out: IC50 (μM) in A2780
[10] = Table 8, compounds 1-6, read-out: A549 IC50
[11] = 298 K, 5% MeOD-d4/95% D2O, pH* 2
[12] = Table 8, compounds 1-6, read-out: A2780 IC50
[13] = 288 K, 5% MeOD-d4/95% D2O, pH* 2

SMILES	IC50 [1, 10]	Hydrolysis k/h^−1 [4, 11]	IC50 [2, 12]	% 9EtA nucleobase adduct (9-ethyl adenine (9EtA); t = 10)	% 9EtA nucleobase adduct (9-ethyl adenine (9EtA); t = 24 h)	% 9EtA nucleobase adduct (9-ethyl adenine (9EtA); t = 72 h)	Hydrolysis k/h^−1 [4, 13]	% 9EtG nucleobase adduct (9-ethyl guanine (9EtG); t = 10)	% 9EtG nucleobase adduct (9-ethyl guanine (9EtG); t = 24 h)	% 9EtG nucleobase adduct (9-ethyl guanine (9EtG); t = 72 h)	pKa* of the aqua adduct [3]	other results
CC(=O)C=C(C)[O][Os][Cl].Cc1ccc(C(C)C)cc1 [AFAP29]												IC50 [1, 7]: > 100 µM; IC50 [2, 8]: > 100 µM; pKa of water coordinated on hydrolysis (aqua adduct of complex) [3]: 7.63
C1=CCC2=C(C1)Cc1ccccc1C2.F[B-](F)(F)F.NCCN.[Cl][Os+] [AFAP65, [(η^6-THA)Os(en)Cl]BF4]												IC50 [1, 7]: 6.4 µM; IC50 [2, 8]: 9.4 µM; pKa of water coordinated on hydrolysis (aqua adduct of complex) [3]: 6.33
[NH2][Pt]([NH2])([Cl])[Cl] [CDDP, cisplatin, reference compound]												IC50 [2, 9]: ~0.5 µM
O=C([O][Os][Cl])c1cccc(Br)n1.c1ccc(-c2ccccc2)cc1 [Compound 1, [(η^6-bip)Os(6-Br-pico)Cl]]	> 50 µM	0.345 ± 0.0002 h⁻¹	> 50 µM									
O=C([O][Os][Cl])c1cccc(O)n1.c1ccc(-c2ccccc2)cc1 [Compound 2, [(η^6-bip)Os(6-OH-pico)Cl]]	> 50 µM		> 50 µM									
Cc1cccc(C(=O)[O][Os][Cl])n1.c1ccc(-c2ccccc2)cc1 [Compound 3, [(η^6-bip)Os(6-Me-pico)Cl]]	> 50 µM	0.676 ± 0.039 h⁻¹	> 50 µM	0%	9%	9%	0.219 ± 0.005 h⁻¹	0%	30%	30%	6.34	% aqua adduct ([5]; 4 mM NaCl): 50%; % aqua adduct ([5]; 22.7 mM NaCl): 60%; % aqua adduct ([5]; 100 mM NaCl): 35%; binding to 9EtA (nucleobase adduct formation) (9-ethyl adenine (9EtA)): 9%; binding to 9EtG (nucleobase adduct formation) (9-ethyl guanine (9EtG)): 30%; % aqua adduct ([6]; 4 mM NaCl): 70%; % aqua adduct ([6]; 22.7 mM NaCl): 49%; % aqua adduct ([6]; 100 mM NaCl): 27%
O=C([O][Os][Cl])c1cc(Cl)ccn1.c1ccc(-c2ccccc2)cc1 [Compound 4, [(η^6-bip)Os(4-Cl-pico)Cl]]	10 to 50 µM	0.656 ± 0.032 h⁻¹	4.8 µM	0%	62%	71%	0.288 ± 0.001 h⁻¹	0%	59%	76%	6.30	Extent of hydrolysis at equilibrium (aqua adduct) ([4]; 5% MeOD-d4/95% D2O, pH* 2): 100%; Activity in A2780 cancer cell line [2]: toxic
O=C(O)c1ccnc(C(=O)[O][Os][Cl])c1.c1ccc(-c2ccccc2)cc1 [Compound 5, [(η^6-bip)Os(4-CO2H-pico)Cl]]	> 50 µM	0.384 ± 0.004 h⁻¹	> 50 µM	0%	100%	100%	0.158 ± 0.011 h⁻¹	0%	100%	100%	6.61	binding to 9EtA (nucleobase adduct formation) (9-ethyl adenine (9EtA)): 100%; Extent of hydrolysis at equilibrium (aqua adduct) ([4]; 5% MeOD-d4/95% D2O, pH* 2): 100%; binding to 9EtG (nucleobase adduct formation) (9-ethyl guanine (9EtG)): 100%
Cc1cc(C)c(NC(=O)c2ccccn2)c(C)c1.Cc1ccc(C(C)C)cc1.F[P-](F)(F)(F)(F)F.[Cl][Os+] [Compound 9, [(η^6-p-cym)Os(N-2,4,6-trimethyl-Ph-picolinamide)Cl]PF6]												+1 eq. 9-EtA (% adduct formation) (9-ethyl adenine (9EtA); t = 0.17 h): 0%; +1 eq. 9-EtA (% adduct formation) (9-ethyl adenine (9EtA); t = 24 h): 0%; Rate of hydrolysis [4]: very slowly; Hydrolysis k/h^−1 ([4]; Table 18, 310 K, 0.8 mM): 0.16 ± 0.01 h⁻¹; Activity in A2780 cancer cell line [2]: inactive; IC50 [2, 9]: > 50 µM; +1 eq. 9-EtG (% adduct formation) (9-ethyl guanine (9EtG); t = 0.17 h): 0%; +1 eq. 9-EtG (% adduct formation) (9-ethyl guanine (9EtG); t = 24 h): 0%

— patent US20100291236A1, “OSMIUM COMPOUNDS” (THE UNIVERSITY OF WARWICK, priority 2006, published 2010)
